Test results published in US5093342A, “Use of omeprazole as an antimicrobial agent” (priority 1989, dated 1992).
Values after ≈ are worked out from the molar mass of the structure shown.

Test system: Campylobacter pylori 8005
Experiment: in vitro antimicrobial activity, agar plate dilution method (MIC)
Type: cell-based
Details: Helicobacter pylori, 48 h, Brucella Agar containing 5% horse lysed blood, 37° C., 10% carbon dioxide gas, 2 days, inoculum 10^7 cells/ml, read-out: minimal inhibitory concentration (MIC)

COc1ccc2[nH]c([S+]([O-])Cc3ncc(C)c(OC)c3C)nc2c1 (stereo not shown) [omeprazole, 5-methoxy-2-[[(4-methoxy-3,5-dimethyl-2-pyridinyl)methyl]-sulfinyl]-1H-benzimidazole]
MIC: 0.39 µg/mL (≈ 1.13 µM)
